# Results: patent US6653478B2, “Substituted benzimidazol-2-ones as vasopressin receptor antagonists and neuropeptide Y modulators” (Ortho-McNeil Pharmaceutical, Inc., priority 2000, dated 2003)
# How the values were obtained:
# human V1a receptor = human V1a receptor (Homo sapiens, UniProt P37288); test: V1a binding assay (3H-AVP displacement, HEK-293 membranes); design: expressed in transfected cells; host or cells: HEK-293 (membranes); details: for inhibition at 1 µM: 1.0 μM compound, read-out: V1a@1.0, % Inh
# Sequence of human V1a receptor (P37288 whole entry): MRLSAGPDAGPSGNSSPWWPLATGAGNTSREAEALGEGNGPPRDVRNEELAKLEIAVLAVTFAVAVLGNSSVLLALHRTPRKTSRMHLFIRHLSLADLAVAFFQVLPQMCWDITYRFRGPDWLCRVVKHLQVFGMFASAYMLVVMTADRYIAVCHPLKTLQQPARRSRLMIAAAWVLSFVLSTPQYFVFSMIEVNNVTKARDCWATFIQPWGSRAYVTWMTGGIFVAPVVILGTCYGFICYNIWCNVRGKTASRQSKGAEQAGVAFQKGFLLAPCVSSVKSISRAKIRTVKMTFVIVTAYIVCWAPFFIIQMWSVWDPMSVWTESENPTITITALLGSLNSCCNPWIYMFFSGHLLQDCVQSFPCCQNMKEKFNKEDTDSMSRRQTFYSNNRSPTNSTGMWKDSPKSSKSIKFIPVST
# In short: (§1)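 Membranes competed against 3H-AVP (40-87 Ci/mmol, 10,000 cpm/well) in 50 mM Tris, 5 mM MgCl2, 0.1% BSA, pH 7.5, with protease inhibitors. Incubated 1 hour at room temperature, then filtered on PEI-presoaked GF/C and scintillation counted. Non-specific binding defined with 1.25 μM AVP.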
# human V1b receptor = biological target: T1, human V1b receptor (Homo sapiens, UniProt P47901); test: V1b binding assay (3H-AVP displacement, HEK-293 membranes); design: expressed in transfected cells; host or cells: HEK-293 (membranes); details: for inhibition at 10 µM: 10 μM compound, read-out: V1b % Inh @10; for inhibition at 1 µM: 1.0 μM compound, read-out: V1b@1.0, % Inh
# T1 sequence (P47901 1-424): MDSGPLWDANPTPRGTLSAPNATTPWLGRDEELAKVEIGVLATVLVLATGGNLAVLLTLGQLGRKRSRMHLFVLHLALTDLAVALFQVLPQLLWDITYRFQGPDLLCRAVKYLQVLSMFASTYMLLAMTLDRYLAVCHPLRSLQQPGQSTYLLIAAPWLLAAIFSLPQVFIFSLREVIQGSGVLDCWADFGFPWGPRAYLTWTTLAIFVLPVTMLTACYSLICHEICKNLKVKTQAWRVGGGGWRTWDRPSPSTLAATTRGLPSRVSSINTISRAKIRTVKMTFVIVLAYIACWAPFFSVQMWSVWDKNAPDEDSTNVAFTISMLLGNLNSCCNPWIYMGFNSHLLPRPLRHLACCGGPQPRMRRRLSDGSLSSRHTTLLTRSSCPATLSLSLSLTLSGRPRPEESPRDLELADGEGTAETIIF
# In short: as §1
# human V2 receptor = human V2 receptor (Homo sapiens, UniProt P30518); test: V2 binding assay (3H-AVP displacement, HEK-293 membranes); design: expressed in transfected cells; host or cells: HEK-293 (membranes); details: 1.0 μM compound; read-out: V2@1.0, % Inh
# Sequence of human V2 receptor (P30518 whole entry): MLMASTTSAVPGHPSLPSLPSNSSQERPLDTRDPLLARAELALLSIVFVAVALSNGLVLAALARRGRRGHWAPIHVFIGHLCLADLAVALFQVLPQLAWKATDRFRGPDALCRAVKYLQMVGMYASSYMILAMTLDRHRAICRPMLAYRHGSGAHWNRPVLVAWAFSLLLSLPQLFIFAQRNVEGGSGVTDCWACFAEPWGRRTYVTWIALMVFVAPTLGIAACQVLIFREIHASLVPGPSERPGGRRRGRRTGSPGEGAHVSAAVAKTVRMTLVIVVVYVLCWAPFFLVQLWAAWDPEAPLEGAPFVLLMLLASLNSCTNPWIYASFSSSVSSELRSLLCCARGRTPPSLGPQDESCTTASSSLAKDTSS
# In short: as §1
# NPY2 receptors = biological target: T2, NPY2 receptors (Homo sapiens, UniProt P49146); test: Neuropeptide Y receptor binding assay (125I-PYY, KAN-TS cell membranes); details: 10 μM compound; read-out: NPY-2@10, % Inh
# T2 construct: Cell Membranes from KAN-TS cells having NPY2 receptors; endogenous in cells; host or cells: KAN-TS cells (membranes)
# T2 sequence (P49146 1-381): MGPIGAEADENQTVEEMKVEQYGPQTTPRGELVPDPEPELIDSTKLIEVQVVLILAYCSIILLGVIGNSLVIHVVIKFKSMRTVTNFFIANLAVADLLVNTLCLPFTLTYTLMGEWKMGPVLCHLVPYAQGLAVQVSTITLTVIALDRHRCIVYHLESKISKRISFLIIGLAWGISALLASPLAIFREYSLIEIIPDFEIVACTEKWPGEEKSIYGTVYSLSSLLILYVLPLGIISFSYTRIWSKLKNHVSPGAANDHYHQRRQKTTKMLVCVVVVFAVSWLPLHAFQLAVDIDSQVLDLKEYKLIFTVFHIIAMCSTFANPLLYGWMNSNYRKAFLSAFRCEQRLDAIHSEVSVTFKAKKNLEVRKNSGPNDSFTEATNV
# Method: Neuropeptide Y Receptor Binding Assay
# Load 96-well RIA racks with RIA vials (Sarstedt, cat. #73.1055)
# Prepare membranes—use 2×15 cm confluent plates/96-well assay plate
# Add 14 mls Homogenization buffer/cell pellet
# Homogenize at high speed for 15 seconds
# Transfer to 15 ml conical tube and spin 5′ at 4° C. at setting 3 in RT6000 centrifuge
# Transfer supernatant to 30 ml Corex tube
# Balance and spin 25′ at 15,000 rpm at 4° C.
# Resuspend pellet in 10 mls Binding buffer
# Homogenize at high speed for 15 sec.
# Bring volume up to 50 mls in Binding buffer (25 mls/2×96-well plates)
# Keep on ice until use or freeze in aliquots (2 plates/tube) in −70° C.
# Prepare ^125I-PYY (for 2×96-well compound plates)
# Dilute 50 uCi ^125I-PYY in 1 ml H2O
# Add 0.4 ml 10% BSA to 20 ml Binding buffer
# Add 150 μl ^125I-PYY, mix well
# NSB (1 μM PYY final conc.): 40 μl PYY (100 μM stock)+60 μl 30% DMSO in HEPES=40 μM PYY—add 5 μl/well
# Total Binding: Add 5 μl/well of Compound Diluent
# Add 5 μl compound (final conc. @10 μM)
# Incubate at R.T. for 1 hr.
# Spin plates for 10′ at setting 9 in RT6000 centrifuge
# Aspirate supernatant from tubes, add 300 μl PBS and aspirate again.
# After plates are washed and aspirated, put individual tubes in 12×75 mm polypropylene carrier tubes. Count on gamma counter.
Structure (SMILES),IC50 (human V1a receptor) [µM],IC50 (human V1b receptor) [µM],inhibition at 10 µM (human V1b receptor) [%],inhibition at 1 µM (human V2 receptor) [%],inhibition at 10 µM (NPY2 receptors) [%],inhibition at 1 µM (human V1a receptor) [%],inhibition at 1 µM (human V1b receptor) [%]
"O=c1n(CCCN2CCCCC2)c2ccccc2n1C1CCN(C(=S)NCC(c2ccccc2)c2ccccc2)CC1 [Compound 118, 1-[(N1-piperidinocarbothioyl-2,2-diphenylethylamino)-4-yl]-3-(3-N-piperidinylpropyl)-1,3-dihydrobenzimidazol-2-one]",,,,21,52,94,55
O=C(NC(c1ccccc1)c1ccccc1)N1CCC(n2c(=O)[nH]c3ccccc32)CC1 [Compound 75],,1,,0,12,58,
"Cc1ccccc1NC(=O)N1CCC(n2c(=O)n(CCCN3CCCCC3)c3ccccc32)CC1 [Compound 110, 1-[(N1-piperidinocarbonyl-2-methylphenylamino)-4-yl]-3-(3-N-piperidinylpropyl)-1,3-dihydrobenzimidazol-2-one]",,,,2,0,41,19
CC(=O)NCCNC(=O)C(Cc1ccccc1)NC(=S)N1CCC(n2c(=O)[nH]c3ccccc32)CC1 (centres unmarked) [Compound 44],,,24,2,9,37,
Cc1ccccc1NC(=O)N1CCC(n2c(=O)[nH]c3ccccc32)CC1 [Compound 48],,,3,0,22,2,
"CCN(CC)CCn1c(=O)n(C2CCN(C(=S)NC(C)c3ccc(F)cc3)CC2)c2ccccc21 (centres unmarked) [Compound 36, 1-(N1-Piperidinocarbothioyl-(4-fluoro-[…]-methylbenzylamino)-4-yl)-3-(2-diethyaminoethyl)-1,3-dihydrobenzimidazol-2-one]",,,20,0,16,45,
O=c1[nH]c2ccccc2n1C1CCN(C(=S)NC2c3ccccc3-c3ccccc32)CC1 [Compound 33],,,9,0,13,33,
"Cc1ccccc1NC(=S)N1CCC(n2c(=O)n(CCCN3CCCCC3)c3ccccc32)CC1 [Compound 109, 1-[(N1-piperidinocarbothioyl-2-methylphenylamino)-4-yl]-3-(3-N-piperidinylpropyl)-1,3-dihydrobenzimidazol-2-one]",0.056,,,0,58,,14
"O=c1n(Cc2ccccc2)c2ccccc2n1C1CCN(C(=S)NCCc2ccc(Cl)cc2)CC1 [Compound 39, 1-(N1-Piperidinocarbothioyl-2-(4-chlorophenyl)ethylamino-4-yl)-3-benzyl-1,3-dihydrobenzimidazol-2-one]",,,7,0,18,17,
"O=c1n(CCCN2CCCCC2)c2ccccc2n1C1CCN(C(=S)NCc2ccccc2)CC1 [Compound 105, 1-[(N1-piperidinocarbothioylbenzylamino)-4-yl]-3-(3-N-piperidinylpropyl)-1,3-dihydrobenzimidazol-2-one]",0.188,,,0,12,58,30

# Other lines, results leading:
IC50 (human V1a receptor) [µM],IC50 (human V1b receptor) [µM],inhibition at 10 µM (human V1b receptor) [%],inhibition at 1 µM (human V2 receptor) [%],inhibition at 10 µM (NPY2 receptors) [%],inhibition at 1 µM (human V1a receptor) [%],inhibition at 1 µM (human V1b receptor) [%],Structure (SMILES)
0.029,0.87,88,0,79,,,"CN(C)CCCn1c(=O)n(C2CCN(C(=S)NC(c3ccccc3)c3ccccc3)CC2)c2ccccc21 [Compound 71, 1-[(N1-piperidinocarbothioylbenzhydrylamino)-4-yl]-3-(3-N,N-dimethylaminopropyl)-1,3-dihydrobenzimidazol-2-one]"
,,27,0,40,22,,"NC(=O)CCn1c(=O)n(C2CCN(C(=S)NC(c3ccccc3)c3ccccc3)CC2)c2ccccc21 [Compound 69, 1-[(N1-piperidinocarbothioyldiphenylmethylamino)-4-yl]-3-(2-amidoethyl)-1,3-dihydro-benzimidazol-2-one]"
0.126,,,16,29,,46,"CC1CCN(CCCn2c(=O)n(C3CCN(C(=O)NC(c4ccccc4)c4ccccc4)CC3)c3ccccc32)CC1 [Compound 99, 1-[(N1-piperidinocarbonylbiphenylmethylamino)-4-yl]-3-(4-methylpiperidin-1-yl-propyl)-1,3-dihydrobenzimidazol-2-one]"
0.014,,,0,21,,43,CC1CC(C)CN(CCCn2c(=O)n(C3CCN(C(=O)NC(c4ccccc4)c4ccccc4)CC3)c3ccccc32)C1 (centres unmarked) [Compound 101]
0.022,,,12,95,,45,O=c1n(CCCCN2CCCCC2)c2ccccc2n1C1CCN(C(=S)NC(c2ccccc2)c2ccccc2)CC1 [Compound 107]
0.006,0.14,,11,91,,,CC1CC(C)CN(CCCn2c(=O)n(C3CCN(C(=S)NC(c4ccccc4)c4ccccc4)CC3)c3ccccc32)C1 (centres unmarked) [Compound 82]
0.59,,0,38,52,,,"O=c1[nH]c2ccccc2n1C1CCN(C(=S)NC(c2ccccc2)c2ccccc2)CC1 [Compound 1, 1-[(N1-Piperidinocarbothioyldiphenylmethylamino)-4-yl]-1,3-dihydro-benzimidazol-2-one]"
,,18,0,4,47,,"O=C1c2ccccc2C(=O)N1CCCn1c(=O)n(C2CCN(C(=S)NC(c3ccccc3)c3ccccc3)CC2)c2ccccc21 [Compound 54, 1-[(N1-Piperidinocarbothioyldiphenylmethylamino)-4-yl]-3-(3-N-phthalimidopropyl)-1,3-dihydrobenzimidazol-2-one]"
,,41,17,74,95,,"CN1CCN(CCCn2c(=O)n(C3CCN(C(=S)NC(c4ccccc4)c4ccccc4)CC3)c3ccccc32)CC1 [Compound 78, 1-[(N1-piperidinocarbothioylbiphenylmethylamino)-4-yl]-3-(3-N-(N-Methylpiperazino)propyl)-1,3-dihydrobenzimidazol-2-one]"
0.023,,,7,89,70,47,"CC1CCN(CCCn2c(=O)n(C3CCN(C(=S)NC(c4ccccc4)c4ccccc4)CC3)c3ccccc32)CC1 [Compound 113, 1-[(N1-piperidinocarbothioylbiphenylmethylamino)-4-yl]-3-(4-methylpiperidin-1-yl-propyl)-1,3-dihydrobenzimidazol-2-one]"
